From patent publication US20230026611A1, “ARYL HETEROCYCLIC COMPOUNDS AS Kv1.3 POTASSIUM SHAKER CHANNEL BLOCKERS” (D. E. Shaw Research, LLC, priority 2019, published 2023)
Where two headings read alike, the source gives them in different places.

Target: T1, Kv1.3 potassium channel (Homo sapiens, UniProt P22001)
T1 construct: expressed in transfected cells
Assay: Kv1.3 potassium channel blocker activity, automated whole-cell patch clamp (Patchliner) in CHO-K1 cells stably expressing Kv1.3
Type: cell-based
Method: Example 82. Evaluation of Kv1.3 potassium channel blocker activities
This assay is used to evaluate the disclosed compounds' activities as Kv1.3 potassium channel blockers.
CHO-K1 cells stably expressing Kv1.3 were grown in DMEM containing 10% heat-inactivated FBS, 1 mM sodium pyruvate, 2 mM L-glutamine, and G418 (500 μg/ml).
All compounds were dissolved in DMSO at 30 mM.
The currents were evoked by applying 100 ms depolarizing pulses from −90 mV (holding potential) to +40 mV were applied with 0.1 Hz frequency. […] 10-second breaks were used between pulse trains (see Table A below).
Data were sampled at 10 kHz without filtering. Passive leak currents were subtracted online using a P/4 procedure (HEKA Elektronik Dr. Schulze GmbH). […] Total compound incubation time before the next pulse train was not longer than 10 seconds. Peak current inhibition was observed during compound equilibration.

[1] = CHO-K1 cells stably expressing Kv1.3, patch clamp, current inhibition, read-out: Kv1.3 IC50

T1 sequence (P22001 whole entry): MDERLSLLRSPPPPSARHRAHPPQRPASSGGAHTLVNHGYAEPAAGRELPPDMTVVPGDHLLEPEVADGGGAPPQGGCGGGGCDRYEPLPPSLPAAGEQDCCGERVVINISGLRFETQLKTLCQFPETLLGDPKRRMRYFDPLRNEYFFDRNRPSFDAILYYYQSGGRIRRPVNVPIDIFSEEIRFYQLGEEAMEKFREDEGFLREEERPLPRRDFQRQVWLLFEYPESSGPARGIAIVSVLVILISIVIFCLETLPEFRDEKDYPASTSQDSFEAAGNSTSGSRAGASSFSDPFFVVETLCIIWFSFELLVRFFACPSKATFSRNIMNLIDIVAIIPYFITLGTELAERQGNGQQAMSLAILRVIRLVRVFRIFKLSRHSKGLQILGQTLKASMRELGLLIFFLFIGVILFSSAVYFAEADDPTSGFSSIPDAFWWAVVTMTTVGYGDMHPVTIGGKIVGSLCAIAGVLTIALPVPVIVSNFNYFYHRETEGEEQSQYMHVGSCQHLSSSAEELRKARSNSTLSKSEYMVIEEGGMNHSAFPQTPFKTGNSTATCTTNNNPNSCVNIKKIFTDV

Compound	IC50 [1] [µM]	IC50 [µM]
NC(=O)[C@H]1CNCC[C@@H]1c1cc(Cl)c(Cl)cc1O (relative stereo) [Compound 50, (3R,4S)-rel-4-(4,5-dichloro-2-hydroxyphenyl)piperidine-3-carboxamide]	< 10	–
COC(=O)[C@@H]1CNC[C@H]1c1cc(Cl)c(Cl)cc1O (relative stereo) [Compound 53, (3R,4S)-rel-methyl 4-(4,5-dichloro-2-hydroxyphenyl)pyrrolidine-3-carboxylate]	< 10	–
O=S(=O)(C1CCNC1)N1CCC(c2c(O)cc(Cl)c(Cl)c2Cl)CC1 (centres unmarked) [Compound 95, 3,4,5-trichloro-2-[1-(pyrrolidine-3-sulfonyl)piperidin-4-yl]phenol]	< 10	–
CN(C)C(=O)[C@H]1C[C@@H](c2c(O)ccc(Cl)c2Cl)CCN1 (relative stereo) [Compound 77, (2R,4S)-rel-4-(2,3-dichloro-6-hydroxyphenyl)-N,N-dimethylpiperidine-2-carboxamide]	< 10	–
Oc1cc(Cl)c(Cl)cc1C1=CCCNC1 [Compound 19, 4,5-dichloro-2-(1,2,3,6-tetrahydropyridin-5-yl)phenol]	< 10	–
Oc1cc(Cl)c(Cl)cc1[C@H]1C[C@H]2CC[C@@H](C1)N2 (single isomer, unassigned; isomer 2) [Compound 11, 2-[8-azabicyclo[3.2.1]octan-3-yl]-4,5-dichlorophenol isomer 2]	–	< 10
Oc1cc(Cl)c(Cl)cc1C1=CCNC1 [Compound 20, 4,5-dichloro-2-(2,5-dihydro-1H-pyrrol-3-yl)phenol]	< 10	–
Oc1cc(Cl)c(Cl)cc1C1CCNCC1n1ccnn1 (centres unmarked) [Compound 62, 4,5-dichloro-2-[3-(1H-1,2,3-triazol-1-yl)piperidin-4-yl]phenol]	< 10	–
OC[C@@H]1C[C@H](c2cc(Cl)c(Cl)cc2O)CCN1 (single isomer, unassigned) [Compound 35]	< 10	–
NC(=O)C1CNC[C@H]1c1cc(Cl)c(Cl)cc1O (stereo in doubt) [Compound 64, (3R,4R)-rel-4-(4,5-dichloro-2-hydroxyphenyl)pyrrolidine-3-carboxamide]	< 10	–
Oc1cc(Cl)c(Cl)cc1C1=CC2CCC(C1)N2 (centres unmarked) [Compound 17, 2-[8-azabicyclo[3.2.1]oct-2-en-3-yl]-4,5-dichlorophenol]	–	< 10
Oc1cc(Cl)c(Cl)c(Cl)c1C1=CCNCC1 [Compound 46, 3,4,5-trichloro-2-(1,2,3,6-tetrahydropyridin-4-yl)phenol]	< 10	–
Oc1cc(C(F)(F)F)c(Cl)cc1C1CCNCC1 [Compound 29, 4-chloro-2-(piperidin-4-yl)-5-(trifluoromethyl)phenol]	< 10	–
Oc1cc(Cl)c(Cl)cc1C1CNC1 [Compound 22, 2-(azetidin-3-yl)-4,5-dichlorophenol]	< 10	–
O=C([C@H]1C[C@@H](c2c(O)ccc(Cl)c2Cl)CCN1)N1CCOCC1 (relative stereo) [Compound 80, (2R,4S)-rel-3,4-dichloro-2-[2-(morpholine-4-carbonyl)piperidin-4-yl]phenol]	< 10	–
O=C(NC1CNC1)C1CN[C@@H](c2c(O)ccc(Cl)c2Cl)C1 (single isomer, unassigned) [Compound 121]	< 1	–
CC1(C(N)=O)CC(c2c(O)ccc(Cl)c2Cl)CCN1 (centres unmarked) [Compound 83, 4-(2,3-dichloro-6-hydroxyphenyl)-2-methylpiperidine-2-carboxamide]	< 10	–
Oc1ccc(Br)c(Cl)c1C1CCNCC1 [Compound 81, 4-bromo-3-chloro-2-(piperidin-4-yl)phenol]	< 1	–
Nc1nnc([C@H]2C[C@@H](c3c(O)ccc(Cl)c3Cl)CCN2)o1 (relative stereo) [Compound 103, 2-((2R,4S)-rel-2-(5-amino-1,3,4-oxadiazol-2-yl)piperidin-4-yl)-3,4-dichlorophenol]	< 10	–
O=C(NC1CNC1)[C@@H]1CC[C@@H](c2c(O)ccc(Cl)c2Cl)N1 (single isomer, unassigned) [Compound 120]	< 10	–
O=C(NC1CNC1)[C@H]1CN[C@H](c2c(O)ccc(Cl)c2Cl)C1 (single isomer, unassigned) [Compound 124]	< 1	–
O=C(NC1CNC1)[C@H]1CCC(c2c(O)ccc(Cl)c2Cl)N1 (single isomer, unassigned) [Compound 117]	< 30	–
Oc1cc(C(F)F)c(Cl)cc1C1CCNCC1 [Compound 41, 4-chloro-5-(difluoromethyl)-2-(piperidin-4-yl)phenol]	< 10	–
OCC1(c2cc(Cl)c(Cl)cc2O)CCNCC1 [Compound 26, 4,5-dichloro-2-[4-(hydroxymethyl)piperidin-4-yl]phenol]	< 10	–
O=C1NCCC12CC(c1c(O)ccc(Cl)c1Cl)CCN2 (centres unmarked) [Compound 87, 9-(2,3-dichloro-6-hydroxyphenyl)-2,6-diazaspiro[4.5]decan-1-one]	< 10	–

Compound	IC50 [1] [µM]	IC50 [µM]
N[C@H]1CNCC[C@H]1c1cc(Cl)c(Cl)cc1O (relative stereo) [Compound 51, (3R,4S)-rel-2-(3-aminopiperidin-4-yl)-4,5-dichlorophenol]	< 10	–
Oc1cc(Cl)c(Cl)cc1[C@@H]1C[C@H]2CC[C@@H](C1)N2 (single isomer, unassigned; isomer 1) [Compound 15, 2-[8-azabicyclo[3.2.1]octan-3-yl]-4,5-dichlorophenol isomer 1]	–	< 10
O=C(NC1CNC1)[C@@H]1CN[C@H](c2c(O)ccc(Cl)c2Cl)C1 (single isomer, unassigned) [Compound 123]	< 10	–
Cc1ccc(O)c(C2CCNCC2)c1Cl [Compound 71, 3-chloro-4-methyl-2-(piperidin-4-yl)phenol]	< 30	–
NC(=O)[C@@H]1CN(c2c(O)ccc(Cl)c2Cl)CCN1 [Compound 92]	< 10	–
CC1(c2cc(Cl)c(Cl)cc2O)CCNCC1 [Compound 1, 4,5-dichloro-2-(4-methylpiperidin-4-yl)phenol]	< 10	–
O=C(NC1CNC1)[C@@H]1CC[C@H](c2c(O)ccc(Cl)c2Cl)N1 (single isomer, unassigned) [Compound 119]	< 10	–
N[C@@H]1CNCC[C@H]1c1cc(Cl)c(Cl)cc1O (relative stereo) [Compound 49, (3R,4R)-rel-2-(3-aminopiperidin-4-yl)-4,5-dichlorophenol]	< 10	–
Oc1ccc(C2CC2)c(Cl)c1C1CCNCC1 [Compound 69, 3-chloro-4-cyclopropyl-2-(piperidin-4-yl)phenol]	< 30	–
NC(=O)[C@H]1CN(c2c(O)ccc(Cl)c2Cl)CCN1 [Compound 90, (2R)-4-(2,3-dichloro-6-hydroxyphenyl)piperazine-2-carboxamide]	< 10	–
NC(=O)[C@@H]1CNC[C@H]1c1cc(Cl)c(Cl)cc1O (relative stereo) [Compound 52, (3R,4S)-rel-4-(4,5-dichloro-2-hydroxyphenyl)pyrrolidine-3-carboxamide]	< 10	–
NC(=O)[C@H]1CNCC[C@H]1c1cc(Cl)c(Cl)cc1O (single isomer, unassigned) [Compound 58]	< 1	–
Oc1ccc(F)c(Cl)c1C1CCNCC1 [Compound 68, 3-chloro-4-fluoro-2-(piperidin-4-yl)phenol]	< 10	–
CC(=O)N1CCC(c2cc(Cl)c(Cl)cc2O)CC1 [Compound 10, 1-[4-(4,5-dichloro-2-hydroxyphenyl)piperidin-1-yl]ethan-1-one]	< 10	–
NC(=O)[C@H]1CN(c2c(O)cc(Cl)c(Cl)c2Cl)CCN1 [Compound 96, (2R)-4-(2,3,4-trichloro-6-hydroxyphenyl)piperazine-2-carboxamide]	< 1	–
NC[C@H]1CNCC[C@H]1c1cc(Cl)c(Cl)cc1O (relative stereo) [Compound 47, (3R,4S)-rel-2-[3-(aminomethyl)piperidin-4-yl]-4,5-dichlorophenol]	< 30	–
NC(=O)C1CCCN(c2c(O)ccc(Cl)c2Cl)C1 (centres unmarked) [Compound 88, 1-(2,3-dichloro-6-hydroxyphenyl)piperidine-3-carboxamide]	< 10	–
O=C([C@H]1C[C@H](c2c(O)ccc(Cl)c2Cl)CCN1)N1CCOCC1 (relative stereo) [Compound 76, (2R,4R)-rel-3,4-dichloro-2-[2-(morpholine-4-carbonyl)piperidin-4-yl]phenol]	< 10	–
N#CC1(c2cc(Cl)c(Cl)cc2O)CCNCC1 [Compound 13, 4-(4,5-dichloro-2-hydroxyphenyl)piperidine-4-carbonitrile]	–	< 10
Oc1cccc(Cl)c1C1CCNCC1 [Compound 66, 3-chloro-2-(piperidin-4-yl)phenol]	< 10	–
Oc1cc(Cl)c(Cl)cc1N1CCCNCC1 [Compound 37, 4,5-dichloro-2-(1,4-diazepan-1-yl)phenol]	< 10	–
O=C(O)C1CC(c2c(O)ccc(Cl)c2Cl)CCN1 (centres unmarked) [Compound 84, 4-(2,3-dichloro-6-hydroxyphenyl)piperidine-2-carboxylic acid]	< 10	–
NC[C@@H]1CNCC[C@H]1c1cc(Cl)c(Cl)cc1O (relative stereo) [Compound 48, (3R,4R)-rel-2-[3-(aminomethyl)piperidin-4-yl]-4,5-dichlorophenol]	< 10	–
Oc1cc(Cl)c(Cl)cc1[C@@H]1CCNC[C@H]1O (relative stereo) [Compound 7, (3R,4R)-rel-4-(4,5-dichloro-2-hydroxyphenyl)piperidin-3-ol]	< 10	–
NC1(CO)CCN(c2cc(Cl)c(Cl)cc2O)CC1 [Compound 33, 2-[4-amino-4-(hydroxymethyl)piperidin-1-yl]-4,5-dichlorophenol]	< 10	–
